From US4968686A, “Acyclic pyrrolo [2,3-d]pyrimidine analogs as antiviral agents” (The Regents of The University of Michigan, priority 1989, dated 1990)
Where two headings read alike, the source gives them in different places.

Columns and labels:
[1] = Visual cytotoxicity scoring in BSC-1 cells; format: cell-based; settings: african green monkey, Table 1, at time of HSV-1 plaque enumeration, read-out: 50% Inhibitory Concentration Cytotoxicity BSC (visual)
Description: Cytotoxicity produced in HFF and BSC-1 cells was estimated by visual scoring of cells not affected by virus infection in the HCMV and HSV-1 plaque reduction assays. Cytopathology was estimated at 35- and 60-fold magnification and scored on a zero to four plus basis. Wells were scored on the day of staining.
(§1) Dose-response relationships were used to compare drug effects. These were constructed by linearly regressing the percent inhibition of parameters derived in the preceding sections against log drug concentrations. The 50% inhibitory (I50) concentrations were calculated from the regression lines using the methods described by Goldstein. See Goldstein, A., Biostatistics: An Introductory Text, MacMillan, N.Y., 1964, pp. 156-161. Along with the I50 concentration for visual cytotoxicity, the averaged I50 concentrations are compared to I50 concentrations for inhibition for HCMV or HSV-1 replication. Compounds for which the ratio of cytotoxicity I50 concentrations to antiviral I50 concentrations (in vitro therapeutic index) were greater than 10, were considered for further study.

in vitro = format: cell-based, human; settings: human, kb cells
Experimental: KB or HFF cells were planted using a Costar Transplate-96 (Costar, Cambridge, Mass.) in Costar 96-well cluster dishes at a concentration of 10,000 to 12,000 cells per well. Wells were suspended in 200 μl of medium [MDM(H) plus 0.7 gm/liter NaCHO3 supplemented with 10% calf serum] per well. After incubation of 16 to 24 hours at 37° C. in a humidified atmosphere of 4% CO2 in air, […] of medium was removed per well. One-hundred μl of medium with or without compounds in twice their final concentrations was added to each well using a Titertek Multichannel Pipette. Final concentrations of compounds ranged from 0.1 to 320 μM. Fifty μl of medium containing radioactive precursors also was added to each well to give a final concentration to 1 to 3 μCi/ml of labeled precursor. [^3 H]Thd was diluted with unlabeled dThd to give a final concentration of 3 or 6 μM.
Logarithmic cell growth occurred during this time with continual uptake of labeled precursors. At the end of the incubation period, cells were individually harvested from each well using a Skatron Cell harvester (Skatronh, Inc., Sterling, Va.). Cultures for individual wells were harvested onto filter paper and washed free of unincorporated label with nine sequential washes with 5% trichloroacetic acid, nine washes with water, and nine with ethanol using the Skatron unit. Filters were dried, circles from individual cultures were punched from the filter mat and placed into mini-vials. Liquid scintillation solution was added, and radioactivity determined in a Beckman model LS8100 liquid scintillation spectrometer. All samples were counted for 2.0 minutes each, with three rounds of counting. Counts per minute were determined following the application of statistical methods to eliminate count rates which fell outside distribution limits defined by Chauvenet's rejection criterion.
All analyses were performed in triplicate. That is, three culture wells were used per time point, radioactive precursor, and drug concentration in all experiments. Results from triplicate assays were converted to percent of control and plotted as log dose-response curves from which 50% inhibitor (I50) concentrations were interpolated. Three concentrations of vidarabine were included on all plates as a positive control.
as §1

HCMV = HCMV titer, plaque or yield reduction; format: cell-based, human cytomegalovirus (Towne strain) in HFF cells
Description: The 148 strain of HSV-1 was used in most experiments and was provided by Dr. T. W. Schafer of Schering corporation. The HF strain of HSV-1 was used in selected experiments and was obtained from Dr. G. H. Cohen, University of Pennsylvania. The Towne strain, plaque-purified isolate Po, of HCMV was a gift of Dr. Mark Stinski, University of Iowa.
HCMV was titered in 24-well cluster dishes which were planted to contain 5×10^4 cells/well, grown as described above. When the cells were 70 to 80% confluent, 0.2 ml of the virus suspension was added per wall and adsorbed as described above. At least three ten-fold dilutions of each preparation were used. Following virus adsorption, the cell sheets were overlayed with 0.5% methocel (4000 CPS) in maintenance medium [MEM(E) with 1.1 gm/liter NaHCO3, 100 units/ml penicillin G, 100 μg/ml streptomycin, and 5% fetal bovine serum]. The cultures were incubated in a humidified atmosphere of 4% CO2 -96% air. Viral foci were visible 5 to 7 days after infection using at least 10-fold magnification. Cells were fixed and stained by a 10-minute exposure to a 0.1% solution of crystal violet in 20% methanol 7 to 12 days after infection. Microscopic foci were enumerated at 20-fold magnification using a Nikon Profile Projector.
The effect of compounds of the replication of HCMV has been measured using both a plaque (focus) reduction assay and a titer (yield) reduction assay. For the former, HFF cells in 24-well culture dishes were infected with approximately 50 p.f.u. of HCMV per well using the procedures detailed above. Compounds dissolved in growth medium were added in three to six selected concentrations to triplicate wells following virus adsorption. Following incubation at 37° C. for 7 to 10 days, cell sheets were fixed, stained and microscopic foci were enumerated as described above. Drug effects were calculated as a percentage of reduction in number of foci in the presence of each drug concentration compared to the number observed in the absence of drug. DHPG (ganciclovir) was used as a positive control in all experiments.
For titer reduction analysis, HFF cells were planted as described above in 24-well cluster dishes or in 25 cm^2 flasks. When monolayers were approximately 70% confluent, HCMV was added at a m.o.i. of 0.5 p.f.u. per cell and adsorbed as detailed above. Compounds dissolved in growth medium were added in one or one-half logarithm10 dilutions and incubation continued at 37° C. After 7 to 10 days of incubation, culture dishes or flasks were frozen at […] For titer determination, cells were thawed and then subjected to two more cycles of freezing and thawing at 37° C. Serial, one-logarithm10 dilutions of the final suspension were prepared and inoculated onto new cultures of HFF cells. Titer determination was as detailed above in part (1) (b).
as §1

[2] = Human betaherpesvirus 5, Table 2, read-out: HCMV Titer, Plaque or Yield Reduction, 50% Inhibitory Concentration

Nc1ncnc2c1c(Br)cn2COC(CO)CO [UMJD 183, 4-amino-5-bromo-7-[(1,3-dihydroxy-2-propoxy)methyl]-pyrrolo[2,3-d]pyrimidine]
CC50 [1]: > 100 µM
CC50 (in vitro): 25 µM
activity against HCMV (in words) (HCMV): most active

OCC(CO)OCn1cc(Br)c2c(NO)ncnc21 [UMJD 299, 4-hydroxylamino-5-bromo-7-[(1,3-dihydroxy-2-propoxy)methyl]pyrrolo[2,3-d]pyrimidine]
CC50 (in vitro): 357 µM
activity against HCMV (in words) (HCMV): active and nearly as potent as the 4-amino analogs

Nc1ncnc2c1c(Cl)cn2COC(CO)CO [UMJD 186, 4-amino-5-chloro-7-[(1,3-dihydroxy-2-propoxy)-methyl]pyrrolo[2,3-d]pyrimidine]
CC50 [1]: > 100 µM
CC50 (in vitro): > 100 µM

Nc1ncnc2c1c(Br)cn2COCCO [UMJD 102, 4-Amino-5-bromo-7-(2-hydroxyethoxymethyl)pyrrolo[2,3-d]-pyrimidine]
CC50 [1]: > 100 µM
CC50 (in vitro): 100 µM
activity against HCMV (in words) (HCMV): active
IC50 (HCMV; Human betaherpesvirus 5, read-out: HCMV Titer, Plaque or Yield Reduction, 50% Inhibitory Concentration): 3.9 µM

Nc1nc2c(ncn2COCCO)c(=O)[nH]1 [Acyclovir, reference compound]
CC50 [1]: > 100 µM
CC50 (in vitro): > 100 µM
activity against HCMV (in words) (HCMV): only modest activity
IC50 (HCMV; [2]): 63 µM

Nc1ncnc2c1c(Cl)cn2COCCO [UMJD 100, 4-Amino-5-chloro-7-(2-hydroxyethoxymethyl)pyrrolo[2,3-d]-pyrimidine]
CC50 [1]: > 100 µM
CC50 (in vitro): 350 µM
activity against HCMV (in words) (HCMV): active
IC50 (HCMV; [2]): 16 µM

Nc1ncnc2c1c(I)cn2COCCO [UMJD 104, 4-Amino-5-iodo-7-(2-hydroxyethoxymethyl)pyrrolo[2,3-d]-pyrimidine]
CC50 [1]: > 100 µM
CC50 (in vitro): 94 µM
activity against HCMV (in words) (HCMV): active
IC50 (HCMV; [2]): 24 µM

Nc1nc(O)c2ncn(COC(CO)CO)c2n1 [Ganciclovir (DHPG), reference compound]
CC50 [1]: > 100 µM
CC50 (in vitro): 1000 µM
IC50 (HCMV; [2]): 8.8 µM
